According to patent US20070275425A1, “Device and method for analysis of a metabolic malady” (priority 2004, published 2007):

Columns and labels:
[1] = tested on: lipid bodies in neutrophil cells of ZDF rats; test: Lipid bodies per neutrophil cell of leukocyte samples (SEM) from obese ZDF rats treated with anti-diabetic drug; assay type: in vivo, rat; conditions: 10 mg/kg oral gavage five times a week for 20 days
Protocol: (§1) Whole blood samples were obtained from a group of four obese ZDF rats treated with an anti-diabetic drug, Rosiglitazone (10 mg/kg), administered by oral gavage five times a week for 20 days and a group of four untreated obese ZDF rats induced with a saline solution administered by oral gavage five times a week for 20 days.
A whole blood sample was collected in tubes including a solution of heparin. One hour after drawing the whole blood sample from each rat, approximately 75 microliters of whole blood was mixed with 600 microliters of ddH2O and incubated at a temperature of approximately 25° C. for approximately 30 seconds. Then 75 microliters of 10×PBS was added.
Following incubation, the sample was centrifuged at a speed of approximately 1200 rpm for approximately five minutes. Thereafter, resulting supernatant was removed from the leukocyte sample. Approximately 400 microliters of PBS including 0.89 mM calcium and 0.49 mM magnesium was added to the leukocyte sample. The sample was centrifuged again at a speed of approximately 1200 rpm for approximately five minutes. Thereafter, resulting supernatant was removed from the leukocyte sample. Approximately 400 microliters of PBS including 0.89 mM calcium and 0.49 mM magnesium was added to the leukocyte sample. […]

[2] = Fasting glucose test of treated ZDF rats; assay type: in vivo, rat; conditions: obese ZDF rats, 10 mg/kg oral gavage five times a week for 20 days; untreated group 242.25 (SD 14.58); treated SD 14.29
Protocol: as §1
The values of the average number of lipid bodies and average lipid body area correspond to results of a fasting glucose test of the untreated and treated subjects.

## CN(CCOc1ccc(CC2SC(=O)NC2=O)cc1)c1ccccn1 (stereo not drawn) [Rosiglitazone]
[1]; untreated group 1.04 (SD 0.1), treated SD 0.06
  average lipid body area per neutrophil cell of a leukocyte sample: approximately 0.65 μm^2
[1]; untreated group 7.03 (SD 0.83), treated SD 0.24
  average number of lipid bodies per neutrophil cell of a leukocyte sample: approximately 4.09
[2]
  fasting glucose: 110.13 mg/dL
